Test results from ChEMBL document CHEMBL1146939, “Design, synthesis, and biological evaluations of novel oxindoles as HIV-1 non-nucleoside reverse transcriptase inhibitors. Part 2” (Bioorg Med Chem Lett, 2006).

What was measured:
[1] = system: Human immunodeficiency virus 1; assay: Antiviral activity against HIV1 in HEK293T cells; type: functional, organism-based; conditions: Human immunodeficiency virus 1, HEK-293T
HEK293 = assay: Cytotoxicity against HEK293T cells; type: functional; conditions: Homo sapiens
[2] = system: Human immunodeficiency virus 1; assay: Antiviral activity against HIV1 L100I mutant; type: functional, organism-based
[3] = system: Human immunodeficiency virus 1; assay: Antiviral activity against HIV1 K103N mutant; type: functional, organism-based
[4] = system: Human immunodeficiency virus 1; assay: Antiviral activity against HIV1 V106A mutant; type: functional, organism-based
[5] = system: Human immunodeficiency virus 1; assay: Antiviral activity against HIV1 I135T mutant; type: functional, organism-based
[6] = system: Human immunodeficiency virus 1; assay: Antiviral activity against HIV1 I135V mutant; type: functional, organism-based
[7] = system: Human immunodeficiency virus 1; assay: Antiviral activity against HIV1 E138K mutant; type: functional, organism-based
[8] = system: Human immunodeficiency virus 1; assay: Antiviral activity against HIV1 V179E mutant; type: functional, organism-based
[9] = system: Human immunodeficiency virus 1; assay: Antiviral activity against HIV1 Y181C mutant; type: functional, organism-based
[10] = system: Human immunodeficiency virus 1; assay: Antiviral activity against HIV1 Y188L mutant; type: functional, organism-based
[11] = system: Human immunodeficiency virus 1; assay: Antiviral activity against HIV1 F227C mutant; type: functional, organism-based
[12] = system: Human immunodeficiency virus 1; assay: Antiviral activity against HIV1 F227L mutant; type: functional, organism-based

O=C1Nc2ccc(Cl)cc2[C@@]12C[C@@H]2c1ccccc1Br
EC50 [1]: > 10000 nM
CC50 (HEK293): > 10000 nM

CC(=O)/C=C/c1cccc([C@H]2C[C@]23C(=O)Nc2ccc(Cl)cc23)n1
EC50 [1]: 1810 nM
CC50 (HEK293): 6130 nM

O=C1Nc2ccc(Cl)cc2[C@@]12C[C@@H]2c1ccc2c(O)cccc2n1
EC50 [1]: 587 nM
CC50 (HEK293): > 10000 nM

COc1ccc([C@H]2C[C@]23C(=O)Nc2ccc(Cl)cc23)cc1
EC50 [1]: > 10000 nM
CC50 (HEK293): > 10000 nM

CC#Cc1cccc([C@H]2C[C@]23C(=O)Nc2ccc(Cl)cc23)n1
EC50 [1]: 648 nM
CC50 (HEK293): > 10000 nM

CCc1ccc([C@H]2C[C@]23C(=O)Nc2ccc(Cl)cc23)o1
EC50 [1]: 216 nM
CC50 (HEK293): > 10000 nM

CC1(C)[C@H](c2cccc(Br)n2)[C@@]12C(=O)Nc1ccc(Cl)cc12
EC50 [1]: 28 nM
CC50 (HEK293): 5240 nM

O=C1Nc2ccc(Cl)cc2[C@@]12C[C@@H]2c1ccc(F)cc1
EC50 [1]: > 10000 nM
CC50 (HEK293): > 10000 nM

O=C1Nc2ccc(Cl)cc2[C@@]12C[C@@H]2c1cc2ccccc2s1
EC50 [1]: 4970 nM
CC50 (HEK293): > 10000 nM

O=C1Nc2ccc(Cl)cc2[C@@]12C[C@@H]2c1nn[nH]n1
EC50 [1]: > 10000 nM
CC50 (HEK293): 7610 nM

O=C1Nc2ccc(Cl)cc2[C@@]12C[C@@H]2c1cccc[n+]1[O-]
EC50 [1]: > 10000 nM
CC50 (HEK293): > 10000 nM

O=C1Nc2ccc(Cl)cc2[C@@]12C[C@@H]2c1ccc2ccccc2n1
EC50 [1]: 10 nM
CC50 (HEK293): > 10000 nM

O=C1Nc2ccc(Cl)cc2[C@@]12C[C@@H]2c1cccn1S(=O)(=O)c1ccccc1
EC50 [1]: 6770 nM
CC50 (HEK293): > 10000 nM

Cc1cccc([C@H]2C[C@]23C(=O)Nc2ccc(Cl)cc23)n1
EC50 [1]: 39 nM
CC50 (HEK293): > 10000 nM

O=C1Nc2ccc(Cl)cc2[C@@]12C[C@@H]2c1cccc(-c2ccccc2)n1
EC50 [1]: 138 nM
CC50 (HEK293): > 10000 nM

O=C1Nc2ccc(Cl)cc2[C@@]12C[C@@H]2c1cccc(Br)n1
EC50 [1]: 23 nM
EC50 [2]: 277 nM
EC50 [3]: 1930 nM
EC50 [4]: 166 nM
EC50 [5]: 46 nM
EC50 [6]: 14 nM
EC50 [7]: 32 nM
EC50 [8]: 48 nM
EC50 [9]: 134 nM
EC50 [10]: 6520 nM
EC50 [11]: 145 nM
CC50 (HEK293): > 10000 nM
EC50 [12]: 48 nM

CC1(C)[C@H](c2ccc3ccccc3n2)[C@@]12C(=O)Nc1ccc(Cl)cc12
EC50 [1]: 10 nM
EC50 [2]: 58 nM
EC50 [3]: 2350 nM
EC50 [4]: 102 nM
EC50 [5]: 55 nM
EC50 [6]: 47 nM
EC50 [7]: 71 nM
EC50 [8]: 483 nM
EC50 [9]: 717 nM
EC50 [10]: > 10000 nM
EC50 [11]: 2080 nM
CC50 (HEK293): > 10000 nM
EC50 [12]: 381 nM

Cc1cnc([C@H]2C[C@]23C(=O)Nc2ccc(Cl)cc23)c(C)c1[N+](=O)[O-]
EC50 [1]: 180 nM
CC50 (HEK293): > 10000 nM

C=Cc1cccc([C@H]2C[C@]23C(=O)Nc2ccc(Cl)cc23)n1
EC50 [1]: 5 nM
EC50 [2]: 178 nM
EC50 [3]: 11100 nM
EC50 [4]: 149 nM
EC50 [5]: 16 nM
EC50 [6]: < 3 nM
EC50 [7]: 20 nM
EC50 [8]: 88 nM
EC50 [9]: 85 nM
EC50 [10]: 22600 nM
EC50 [11]: 578 nM
CC50 (HEK293): > 10000 nM
EC50 [12]: 88 nM

Cn1nnnc1[C@H]1C[C@]12C(=O)Nc1ccc(Cl)cc12
EC50 [1]: > 10000 nM
CC50 (HEK293): > 10000 nM

Cn1cccc1[C@H]1C[C@]12C(=O)Nc1ccc(Cl)cc12
EC50 [1]: > 10000 nM
CC50 (HEK293): > 10000 nM

O=C1Nc2ccc(Cl)cc2[C@@]12C[C@@H]2c1ccsc1
EC50 [1]: 6 nM
EC50 [2]: 8 nM
EC50 [3]: 100 nM
EC50 [4]: 513 nM
EC50 [5]: 48 nM
EC50 [6]: 17 nM
EC50 [7]: 30 nM
EC50 [8]: 324 nM
EC50 [9]: 31 nM
EC50 [10]: 1250 nM
EC50 [11]: 142 nM
CC50 (HEK293): 1670 nM
EC50 [12]: 2 nM

C=Cc1cccc([C@H]2C(C)(C)[C@]23C(=O)Nc2ccc(Cl)cc23)n1
EC50 [1]: 8 nM
EC50 [2]: 228 nM
EC50 [3]: 696 nM
EC50 [4]: 41 nM
EC50 [5]: 37 nM
EC50 [6]: 29 nM
EC50 [7]: 26 nM
EC50 [8]: 10 nM
EC50 [9]: 120 nM
EC50 [10]: 1070 nM
EC50 [11]: 87 nM
CC50 (HEK293): > 10000 nM
EC50 [12]: 14 nM

Cn1ccnc1[C@H]1C[C@]12C(=O)Nc1ccc(Cl)cc12
EC50 [1]: > 10000 nM
CC50 (HEK293): > 10000 nM

O=C1Nc2ccc(Cl)cc2[C@@]12C[C@@H]2c1cc2ccccc2o1
EC50 [1]: 86 nM
CC50 (HEK293): > 10000 nM

Cc1ccsc1[C@H]1C[C@]12C(=O)Nc1ccc(Cl)cc12
EC50 [1]: 844 nM
CC50 (HEK293): > 10000 nM
